Assays:
[1] = system: rat primary cortical neurons; experiment: Cell viability (MTT) of primary cortical neurons exposed to OGD followed by RX; type: cell-based; conditions: for Neuroprotection in cortical neurons exposed to OGD + RX (in words): added during OGD and RX, 1 at 10 nM, 14 at 10 μM
Experimental: Once identified as NCX activity modulators, compounds 1, 4, and 14 were tested on cell viability of primary rat cortical neurons exposed to OGD followed by RX, an experimental condition mimicking hypoxic conditions occurring during stroke. These compounds were added during either OGD or RX phases at the corresponding median effective concentration for their NCX stimulating or inhibiting activity.
Rat cortical neurons were prepared and grown as previously reported.[22],[23] During the exposure to hypoxic conditions, primary cortical neurons at 7/10 DIV were incubated with different concentrations of each previously identified compound. Italian Ministry of Health and the local Animal Care Committee of “Federico II” University of Naples (Italy) approved all animal procedures adopted (D. Lgs. March 4th, 2014 from Italian Ministry of Health; DIR 210/63 UE; 12/2018-UT7).
Hypoxic conditions were induced by exposing rat primary cortical neurons to a oxygen- and glucose-free medium in a humidified atmosphere containing 95% nitrogen and 5% CO2, as previously reported.[22],[23] Cell injury was assessed by MTT analysis. Briefly, neurons were incubated with 1 mL of MTT solution (0.5 mg/mL in PBS). After 1 h of incubation at 37 °C, neurons were dissolved in dimethyl sulfoxide and the rate of MTT variation was measured spectrophotometrically at the wavelength of 540 nm.[22],[57]

NCX1 [2] = biological target: T1, NCX1 (Canis lupus familiaris, UniProt P23685); experiment: High-throughput screening of NCX1 reverse mode, Fluo-4-loaded BHK-NCX1 cells, Na+-free pulse; type: cell-based, dog; conditions: for Effect on NCX1 activity in the reverse mode (screening, in words): BHK-NCX1, 10 nM and 10 μM; for Fluo-experiments on BHK-NCX1: NCX1 reverse mode, Na+-free, CTL (100), concentration not given (10 nM and 10 μM screened)
T1 construct: expressed in transfected cells; host or cells: BHK (baby hamster kidney) cells, stably transfected

NCX1 [3] = biological target: T1, NCX1; experiment: Single-cell Fura-2AM video-imaging, Na+-free-induced [Ca2+]i increase in BHK-NCX1 cells; type: cell-based, dog; conditions: for Fura2-experiments on BHK-NCX1 (dose/effect) / Fura2-experiments on BHK-NCX1 (dose/effect), inhibition: Na+-free-induced [Ca2+]i increase, reverse mode
Experimental: Furthermore, NCX activity in the reverse mode of operation was also studied on single cell by Fura-2AM video-imaging in BHK-NCX1 and BHK-NCX3 cells (Figures 3 and 4). […] Furthermore, patch-clamp electrophysiology in the whole-cell configuration was used to measure NCX activity both in the forward and reverse mode of operation.
[Ca^2+]i was measured by single-cell computer-assisted video-imaging using Fura-2 acetoxymethyl ester (Fura-2AM). Neurons were loaded with Fura 2AM (10 μM for 30′ at 37 °C). Experiments were carried out with a MicroMax 512BFT cooled CCD camera (Princeton Instruments, Trenton, NJ, USA), LAMBDA 10-2 filter wheeler (Sutter Instruments, Novato, CA), and Meta-Morph/MetaFluor Imaging System software (Universal Imaging, West Chester, PA). Fura-2 fluorescence intensity was measured every 3 s. From each coverslip, 40–60 individual cells were selected and monitored simultaneously. Assuming that the KD for FURA-2 was 224 nM, the equation of Grynkiewicz was used to for calibration.[58]
The NCX reverse mode was determined by switching the normal Krebs medium to Na^+-deficient NMDG+ medium (Na^+-free), as previously reported.[57]
Compounds were solubilized in dimethyl sulfoxide at concentrations of 1 mM, and stock solutions were kept at −20 °C. Appropriate drug dilutions were prepared daily. Statistical analysis was performed with two-way ANOVA, followed by the Newman–Keuls test. Statistical significance was accepted at the 95% confidence level (p < 0.05). Values are expressed as means ± SEM. To obtain EC50’s of newly synthesized compounds and IC50 of compound 4, all data were fitted to the following binding isotherm: […], where X is the drug concentration and n is the Hill coefficient.

NCX1 [4] = biological target: T1, NCX1; experiment: Whole-cell patch-clamp electrophysiology of INCX in BHK-NCX1 cells; type: cell-based, dog; conditions: CTL100; for Patch-clamp-experiments on BHK-NCX1, forward mode: forward mode (−120 mV); for Patch-clamp-experiments on BHK-NCX1, reverse mode: reverse mode (+60 mV)
primary cortical neurons = experiment: Cell viability (MTT) of primary cortical neurons exposed to chemical hypoxia followed by RX; type: cell-based, rat
Experimental: Considering that this represents a more demanding experimental paradigm, compound 1 may be considered an interesting tool with a neuroprotective profile. In fact, its neuroprotective effect in cortical neurons exposed to hypoxic conditions was similar to that produced by ischemic PC,[30],[31] a short stimulus inducing ischemic tolerance in neurons (Figure 6B). Furthermore, to better investigate the neuroprotective profile of compound 1, it was tested in primary cortical neurons exposed to chemical hypoxia, followed by RX, a detrimental condition undermining the mitochondrial function. […] However, the specific role of each mode of operation in the neuroprotective effect remains obscure and very difficult to define in this experimental paradigm. […] Therefore, the excessive activation of the NCX3 forward mode determining Ca^2+ extrusion may negatively counterbalance the activation of its reverse mode, favoring Ca^2+ entrance.
Rat cortical neurons were prepared and grown as previously reported.[22],[23] […]
Chemical hypoxia was reproduced by exposing primary cortical neurons for 45 min to a glucose-free medium containing oligomycin (5 μg/mL) plus 2-DG (2 mM), followed by RX (3 h). […] Cell injury was assessed by MTT analysis at the end of each experiment.

NCX3 [5] = biological target: T2, NCX3 (Rattus norvegicus, UniProt P70549); experiment: High-throughput screening of NCX3 reverse mode, Fluo-4-loaded BHK-NCX3 cells, Na+-free pulse; type: cell-based; conditions: CTL (100), concentration not given (10 nM and 10 μM screened)
T2 construct: expressed in transfected cells; host or cells: BHK (baby hamster kidney) cells, stably transfected
T2 sequence (P70549 31-927): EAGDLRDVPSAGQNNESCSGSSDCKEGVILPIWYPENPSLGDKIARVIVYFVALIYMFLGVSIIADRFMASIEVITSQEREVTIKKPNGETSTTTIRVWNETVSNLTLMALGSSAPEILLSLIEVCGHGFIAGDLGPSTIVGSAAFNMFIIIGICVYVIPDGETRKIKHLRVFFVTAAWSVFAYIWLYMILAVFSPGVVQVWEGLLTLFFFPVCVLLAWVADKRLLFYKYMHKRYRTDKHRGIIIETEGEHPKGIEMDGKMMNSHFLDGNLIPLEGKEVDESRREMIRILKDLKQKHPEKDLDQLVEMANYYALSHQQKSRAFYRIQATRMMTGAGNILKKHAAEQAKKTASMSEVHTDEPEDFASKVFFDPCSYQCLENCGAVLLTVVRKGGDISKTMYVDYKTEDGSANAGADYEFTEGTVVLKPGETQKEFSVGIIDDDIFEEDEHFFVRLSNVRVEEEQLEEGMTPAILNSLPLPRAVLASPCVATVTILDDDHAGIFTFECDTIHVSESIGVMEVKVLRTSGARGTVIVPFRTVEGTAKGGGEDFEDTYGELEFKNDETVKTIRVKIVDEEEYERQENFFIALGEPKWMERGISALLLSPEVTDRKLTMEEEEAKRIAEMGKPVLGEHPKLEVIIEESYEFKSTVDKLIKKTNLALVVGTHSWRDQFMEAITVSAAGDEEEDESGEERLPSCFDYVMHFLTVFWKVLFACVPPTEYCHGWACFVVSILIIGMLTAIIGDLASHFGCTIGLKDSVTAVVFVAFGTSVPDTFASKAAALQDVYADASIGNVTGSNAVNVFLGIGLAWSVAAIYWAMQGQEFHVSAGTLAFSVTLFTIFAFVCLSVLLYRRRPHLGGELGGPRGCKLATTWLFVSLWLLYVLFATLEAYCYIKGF

NCX3 [6] = biological target: T2, NCX3; experiment: Whole-cell patch-clamp electrophysiology of INCX in BHK-NCX3 cells; type: cell-based; conditions: compound 4 at 10 μM (Figures 5B and S1)
NCX3 [7] = biological target: T2, NCX3; experiment: Single-cell Fura-2AM video-imaging, Na+-free-induced [Ca2+]i increase in BHK-NCX3 cells; type: cell-based

O=C1CN=C(c2ccccc2Cl)c2cc([N+](=O)[O-])ccc2N1CN1CCCC1 [Compound 1, 5-(2-Chlorophenyl)-7-nitro-1-(pyrrolidin-1-ylmethyl)-1H-benzo[e][1,4]diazepin-2(3H)-one]
Neuroprotection in cortical neurons exposed to OGD + RX (in words) [1]: showed a neuroprotective profile
Neuroprotection: cell viability after OGD + RX ([1]; compound 10 nM added during OGD and RX, OGDrx alone 57, normoxic control 100): 71±0.8 % of control
Neuroprotection when preincubated and removed during OGD and RX (in words) ([1]; preincubated, then removed during OGD + RX): continued to protect neurons from hypoxic conditions
Effect on NCX1 activity in the reverse mode (screening, in words) (NCX1 [2]): selective NCX1 activator
Fluo-experiments on BHK-NCX1 (NCX1 [2]): 128±1.3
Fura2-experiments on BHK-NCX1 (dose/effect) (NCX1 [3]; 1nM): 120±1.3 % of controls
Fura2-experiments on BHK-NCX1 (dose/effect) (NCX1 [3]; 10nM): 178±2.3 % of controls
Fura2-experiments on BHK-NCX1 (dose/effect) (NCX1 [3]; 10µM): 190±2.1 % of controls
Patch-clamp-experiments on BHK-NCX1, forward mode (NCX1 [4]): 206±2%
Patch-clamp-experiments on BHK-NCX1, reverse mode (NCX1 [4]): 305±3%
Neuroprotection: cell viability after chemical hypoxia + RX (primary cortical neurons; compound 10 nM during chemical hypoxia (45 min) and RX (3 h), chemical Hyp alone 34, control 100): 46±1.5 % of control
Neuroprotection in cortical neurons exposed to chemical hypoxia + RX (in words) (primary cortical neurons; compound 1 at 10 nM): significantly reduced cell suffering
Fluo-experiments on BHK-NCX3 (NCX3 [5]): 100

O=C1CN=C(c2ccccc2)c2cc([N+](=O)[O-])ccc2N1CCN1CCCC1 [Compound 4, 7-Nitro-5-phenyl-1-[2-(pyrrolidin-1-yl)ethyl]-1H-benzo[e][1,4]diazepin-2(3H)-one]
Effect on NCX1 activity in the reverse mode (screening, in words) (NCX1 [2]): selective NCX1 inhibitor
Fluo-experiments on BHK-NCX1 (NCX1 [2]): 80±2
IC50 (NCX1 [3]): 10000 nM
Fura2-experiments on BHK-NCX1 (dose/effect), inhibition (NCX1 [3]; 1nM): 98±1.3 % of controls
Fura2-experiments on BHK-NCX1 (dose/effect), inhibition (NCX1 [3]; 10nM): 97±0.3 % of controls
Fura2-experiments on BHK-NCX1 (dose/effect), inhibition (NCX1 [3]; 10µM): 41±2.1 % of controls
Fura2-experiments on BHK-NCX1 (dose/effect), inhibition (NCX1 [3]; 30µM): 9±0.5 % of controls
melting point: 70 to 71 °C
Patch-clamp-experiments on BHK-NCX1, forward mode (NCX1 [4]; compound 4 at 10 μM (Figure 5)): 85±2.1
Patch-clamp-experiments on BHK-NCX1, reverse mode (NCX1 [4]; compound 4 at 10 μM (Figure 5)): 58±1.1
Effect on NCX activity in BHK-NCX3 cells (in words) (NCX3 [6]): failed to modulate
Fluo-experiments on BHK-NCX3 (NCX3 [5]): 100

CC1CCCCN1C(=O)CN1C(=O)CN=C(c2ccccc2)c2cc([N+](=O)[O-])ccc21 (stereo not shown) [Compound 14, 1-[2-(2-Methylpiperidin-1-yl)-2-oxoethyl]-7-nitro-5-phenyl-1H-benzo[e][1,4]-diazepin-2(3H)-one]
Neuroprotection in cortical neurons exposed to OGD + RX (in words) [1]: lack of neuroprotection
EC50 (NCX3 [7]): 2000 nM
EC50 (NCX1 [3]): 3.5 nM

— publication PMC8713167, “New Insights into the Structure–Activity Relationship and Neuroprotective Profile of Benzodiazepinone Derivatives of Neurounina-1 as Modulators of the Na^+/Ca^2+ Exchanger Isoforms” (Journal of Medicinal Chemistry, 2021)
